Measurements taken from patent US12186361B2, “Method and formulation for inhalation” (Monash University, priority 2011, dated 2025).

What was measured:
[1] = Oxytocin stability: LC/MS assay content recovered after TSI experiments; format: physicochemical; conditions: all TSI stages, capsules and inhalation devices, after spray drying at 70° C. outlet
Experimental: All five capsules were activated into the same TSI. The used capsules and the inhalers were then washed with Milli-Q water into a 100 mL volumetric flask and made up to volume. This was called the ‘residual’ stage. The parts that made up Stage 1 (parts A, B, C and D) were washed into a 200 mL volumetric flask and the parts that made up Stage 2 (parts E, F, G and H) were washed into a 50 mL volumetric flask with Milli-Q water and called ‘stage 1’ and ‘stage 2’ respectively. The amounts of oxytocin in each stage of the TSI were determined by LC/MS assay. The fine particle fraction (FPF) was calculated as the amount of powder that had reached stage 2 of the TSI apparatus divided by total amount of drug that was assayed. This test was the most important measure as it can determine whether a powder containing oxytocin can be formulated with suitable aerosol deposition, and consequent absorption from the lung.
Peptides can potentially be denatured due to extreme heat. From the tests that were conducted in this study, the only indication as to oxytocin stability was the LC/MS assay content following the TSI experiments.

[2] = tested on: uterine contraction (uterine EMG activity); assay: In vivo uterine EMG activity after oxytocin delivery in post-partum ewes (Example 5); parameters: species or system sheep; conditions: for delay from oxytocin administration to uterine contractile response (first EMG burst): post-partum ewes, n=5, average
Text: On day 135 gestational age, pregnant ewes (n=5) were anaesthetised with thiopentone in preparation for surgery. Isuflorane (2.5% in oxygen) was used to maintain anaesthesia and depomycin, procaine penicillin and dihydrostreptomycin were given for pain relief and to reduce the risk of infection. Each ewe was shaved and a 10 cm incision was made in the abdominal skin at the midline below the navel to expose the uterine wall, with care taken to avoid large blood vessels.
Three sterile stainless steel wires for measuring electromyographical (EMG) activity (0.07 mm diameter, inside a 2 mm catheter) were embedded in the smooth muscle layer of the myometrium surrounding the womb and held there by two stitches. The electrodes were passed through a catheter and out of the ewe via a small incision (2 cm) through the right flank. A catheter was inserted in the right jugular to allow for blood samples and to induce labour. Ewes were returned to metabolic cages and given 3-5 days to recover from surgery.
Labour was induced with two 5 ml intravenous injections of dexamethasone (consisting of 5 mg of dexamethasone phosphate and 10 mg of dexamethasone phenylpropionate) 24 hours apart. Labour occurred 54±2 hours after the first dexamethasone injection.
Oxytocin administrations, as detailed above, were performed within 15 hours of delivery. Each sheep received an intra-tracheal dose of dry powder oxytocin formulation, an intra-tracheal instillation of oxytocin in solution and an intramuscular injection of oxytocin. There was at least a one and a half hour washout period between each treatment.
For intra-tracheal administration, an endoscope was passed through the nasal passage into the trachea and positioned near the first bronchial bifurcation, where either a 1 mL aliquot of oxytocin in solution (10 IU) was released or 10 mg (average) of dry powder was delivered through a modified PennCentury powder delivery device.
The dry powder formulation comprised a spray dried composition, as described in example 1. This powder contained 13 units of oxytocin per mg by mass, co-spray dried with equal proportions by mass of mannitol, glycine and leucine.
During this procedure, bronchoscope video images were captured using a Linvatec IM3301 Pal Video Camera attached to an endoscope (Pentax FG-16X), which was saved as a digital file onto a computer using Video Capture Software.
A cyberamp 380 in conjunction with MACLAB hardware (400 Hz Sample rate) and Chart 4 software (10V Input range) was used to display and record action potential originating from smooth muscle cells within the uterus. The cyberamp 380 used the AI401probe with positive input set at AC and negative input set at Ground. The AC cut off was 10 Hz and the prefilter gain set at 100 mV. The low pass filter was set at 300 Hz, the notch filter set to off, the output gain set to 5 and the total gain left at 500. Two way repeated measure ANOVA was performed to determine the statistical significance of our data.

[3] = pulmonary versus IM delivery and post-partum activity

oxytocin recovered of the initial capsule's dose [1]: 90.23±5.41%
Structure (SMILES): CC[C@H](C)[C@@H]1NC(=O)[C@H](Cc2ccc(O)cc2)NC(=O)[C@@H](N)CSSC[C@@H](C(=O)N2CCC[C@H]2C(=O)N[C@@H](CC(C)C)C(=O)NCC(N)=O)NC(=O)[C@H](CC(N)=O)NC(=O)[C@H](CCC(N)=O)NC1=O [oxytocin]
total duration of EMG activity ([2]; IM compared to airway delivery and normal post-partum activity): significantly longer
delay from oxytocin administration to uterine contractile response (first EMG burst) ([2]; IM delivery): approximately 250 seconds
delay from oxytocin administration to uterine contractile response (first EMG burst) ([2]; pulmonary (intra-tracheal) delivery): faster time of onset
length of the initial burst of EMG activity [2, 3]: No differences
number of bursts over the first 30 minutes following the initial burst [2, 3]: nor was there a difference
